In general, half-life refers to the time needed for the level to fall by half in the phase considered. For orientation: AUC means the area under the concentration-time curve, a measure of exposure. Low values mean low exposure, high ones high exposure. The term EC50 denotes the concentration that produces a half-maximal response.

The values that follow come from ChEMBL document CHEMBL5614423, “Proximal fleximer analogues of 2'-deoxy-2'-fluoro-2'-methyl purine nucleos(t)ides: Synthesis and preliminary pharmacokinetic and antiviral evaluation” (Bioorg Med Chem, 2024).

Structures are written as SMILES. Active and inactive are the calls of the source.

In data set [1] the test system is Zaire ebolavirus. Description: Antiviral activity against Zaire Ebola virus upto 100 uM. It is filed as functional, organism-based.
A further data set relates to Nipah virus. Description: Antiviral activity against Nipah virus upto 100 uM. Format: functional, organism-based. Conditions: Henipavirus nipahense.
A further data set deals with Chikungunya virus. Description: Antiviral activity against Chikungunya virus upto 100 uM. Format: functional, organism-based.
In the next data set the test system is dengue virus type 2. The data set can be described thus: Antiviral activity against Dengue virus 2 upto 100 uM. Format: functional, organism-based.
Data set [2] relates to Middle East respiratory syndrome-related coronavirus. Description: Antiviral activity against MERS CoV upto 100 uM. It is filed as functional, organism-based.
For a further data set, the system named is Human alphaherpesvirus 1. Description: Antiviral activity against HSV 1 upto 150 uM. Format: functional, organism-based.
Another data set concerns Cytomegalovirus. The data set can be described thus: Antiviral activity against Cytomegalovirus upto 150 uM. It is filed as functional, organism-based.
For a further data set, the system named is Human gammaherpesvirus 4. The data set can be described thus: Antiviral activity against Epstein Barr virus upto 150 uM. It is filed as functional, organism-based.
Data set [3] in a line: Toxicity in CD-1 mouse assessed as occurence of adverse event at 100 to 300 mg/kg, ip for 3 days. Format: organism-based. The note with it: in vivo, 72 h, dose 100-300 mg/kg, time 3 day.
A short description of data set [4]: Toxicity in CD-1 mouse assessed as drug tolerance at 100 to 300 mg/kg, ip for 3 days. Format: organism-based. The note with it: in vivo, 72 h, dose 100-300 mg/kg, time 3 day.
Data set [5] in a line: Half life in CD-1 mouse at 100 mg/kg by MS analysis. It is filed as ADME, organism-based. Conditions: in vivo.
The nature of data set [6]: AUC in CD-1 mouse at 100 mg/kg measured for 24 hrs by MS analysis. It is filed as ADME, organism-based. Conditions: in vivo.
In data set [7] the test system is Zaire ebolavirus. The data set can be described thus: Antiviral activity against Zaire Ebola virus. Format: functional, organism-based.

`CNc1nc(N)ncc1-c1cn([C@@H]2O[C@H](CO)[C@@H](O)[C@@]2(C)F)cn1`: the outcome (in the data set with Zaire ebolavirus [1]; with Nipah virus; with Chikungunya virus; with dengue virus type 2; in [2]; with Human alphaherpesvirus 1) was inactive. The result in the data set on Cytomegalovirus and in the data set on Human gammaherpesvirus 4 was inactive. Also, the Activity result in data set [3] and in data set [4] was “Non-Toxic” in each case. Also, the half-life in data set [5] worked out at 1 h. This molecule also returned an AUC in [6] of 36000 ng·h/mL.

For `CNc1nc(N)ncc1-c1cn([C@@H]2O[C@H](CO[P@@](=O)(N[C@@H](C)C(=O)OC(C)C)Oc3ccccc3)[C@@H](O)[C@@]2(C)F)cn1`, the result (in the data set with Nipah virus; with Chikungunya virus; in the data set on dengue virus type 2; in data set [2]; in the data set on Human alphaherpesvirus 1; in the data set with Cytomegalovirus) was inactive. In addition, the result in the data set on Human gammaherpesvirus 4 was inactive. This molecule also had a half-maximal effective concentration (EC50) in the data set on Zaire ebolavirus [7] of 30 µM.
